In the NIST ThermoML archive (doi:10.1016/j.fluid.2010.07.009):

Columns and labels:
[1] = Fluid (supercritical or subcritical phases), coriolis meter
[2] = xn = mol fraction of the nth substance listed; conditions: Fluid (supercritical or subcritical phases), coriolis meter

COC [dimethyl ether]
[1]
Conditions	mass density [kg/m3]
288.5 K, 4100 kPa	684
288.6 K, 5100 kPa	686
288.8 K, 6100 kPa	688
289 K, 7200 kPa	690
289.1 K, 8200 kPa	691
289.1 K, 9200 kPa	693
289.3 K, 10000 kPa	694
289.3 K, 15000 kPa	703
289.3 K, 20000 kPa	711
289.4 K, 25000 kPa	718
289.5 K, 30000 kPa	725

O=C=O [carbon dioxide]
[1]
Conditions	mass density [kg/m3]
291.3 K, 6100 kPa	817
291.5 K, 7100 kPa	834
291.7 K, 8100 kPa	849
291.9 K, 9200 kPa	861
292 K, 10200 kPa	872
292.1 K, 15200 kPa	916
292.1 K, 20200 kPa	948
292.1 K, 25300 kPa	975
292.1 K, 30100 kPa	997

COC [dimethyl ether] + O=C=O
[2]
Conditions	mass density [kg/m3]
288.5 K, 4100 kPa, x1 = 1	684
288.6 K, 5100 kPa, x1 = 1	686
288.8 K, 6100 kPa, x1 = 1	688
289 K, 7200 kPa, x1 = 1	690
289.1 K, 8200 kPa, x1 = 1	691
289.1 K, 9200 kPa, x1 = 1	693
289.3 K, 10000 kPa, x1 = 1	694
289.3 K, 15000 kPa, x1 = 1	703
289.3 K, 20000 kPa, x1 = 1	711
289.4 K, 25000 kPa, x1 = 1	718
289.5 K, 30000 kPa, x1 = 1	725
290.2 K, 4100 kPa, x1 = 0.251	806
290.7 K, 30100 kPa, x1 = 0.251	908
291.8 K, 25200 kPa, x1 = 0.251	892
291.9 K, 10100 kPa, x1 = 0.251	834
291.9 K, 15200 kPa, x1 = 0.251	857
291.9 K, 20200 kPa, x1 = 0.251	875
292 K, 8100 kPa, x1 = 0.251	824
292 K, 9200 kPa, x1 = 0.251	829
292.1 K, 6100 kPa, x1 = 0.251	811
292.1 K, 7100 kPa, x1 = 0.251	817
292.2 K, 5100 kPa, x1 = 0.251	805
292.5 K, 4000 kPa, x1 = 0.458	769
292.5 K, 5200 kPa, x1 = 0.458	773
292.6 K, 6100 kPa, x1 = 0.458	776
292.7 K, 7100 kPa, x1 = 0.458	780
292.8 K, 8200 kPa, x1 = 0.458	783
293 K, 9200 kPa, x1 = 0.458	786
293.1 K, 10200 kPa, x1 = 0.458	789
293.2 K, 15200 kPa, x1 = 0.458	804
293.4 K, 20200 kPa, x1 = 0.458	817
293.5 K, 25300 kPa, x1 = 0.458	830
293.7 K, 29300 kPa, x1 = 0.458	839
293.7 K, 30000 kPa, x1 = 0.458	840

O=C=O [carbon dioxide] + COC
[2], x2 = 0
Conditions	mass density [kg/m3]
291.3 K, 6100 kPa	817
291.5 K, 7100 kPa	834
291.7 K, 8100 kPa	849
291.9 K, 9200 kPa	861
292 K, 10200 kPa	872
292.1 K, 15200 kPa	916
292.1 K, 20200 kPa	948
292.1 K, 25300 kPa	975
292.1 K, 30100 kPa	997
